{
  "source": "patent US20260027116A1",
  "about": "“Methods of Treating Chronic Graft-Versus-Host Disease Following Allogeneic Hematopoietic Stem Cell Transplantation” (Kadmon Corporation, LLC, priority 2022, published 2026)",
  "test_system": "chronic graft-versus-host disease (cGVHD)",
  "test": "Example 2 phase II randomized study: response per 2014 NIH criteria (best ORR, DOR, TTR, FFS, OS)",
  "format": "in vivo, human",
  "conditions": "for ORR / ORR for responses occurring within 6 mo of treatment / ORR for responses occurring within 12 mo of treatment: mITT",
  "experimental": "All responses were assessed by the study site investigators.\nHere, we report data from the 12-month analysis.",
  "key": {"[1]": {"conditions": "responses within 6 mo of treatment, 200 mg daily (n = 66)"}, "[2]": {"conditions": "responses within 6 mo of treatment, 200 mg twice daily (n = 66)"}, "[3]": {"conditions": "responses within 6 mo of treatment, Total (N = 132)"}, "[4]": {"conditions": "responses within 12 mo of treatment, 200 mg daily (n = 66)"}, "[5]": {"conditions": "responses within 12 mo of treatment, 200 mg twice daily (n = 66)"}, "[6]": {"conditions": "responses within 12 mo of treatment, Total (N = 132)"}},
  "data": [
    {"smiles": "CC(C)NC(=O)COc1cccc(-c2nc(Nc3ccc4[nH]ncc4c3)c3ccccc3n2)c1", "note": "[Belumosudil, 2-{3-[4-(1H-indazol-5-ylamino)-2-quinazolinyl]phenoxy}-N-(propan-2-yl) acetamide]", "values": [
      {"measurement": "FFS at 12 mo (95% CI)", "setting": "200 mg daily (n = 66)", "result": "57 (44-68) %"},
      {"measurement": "FFS at 6 mo (95% CI)", "setting": "200 mg twice daily (n = 66)", "result": "76 (63-84) %"},
      {"measurement": "FFS at 12 mo (95% CI)", "setting": "200 mg twice daily (n = 66)", "result": "56 (43-67) %"},
      {"measurement": "2-year OS rate", "setting": "Example 2", "result": 89, "unit": "%"},
      {"measurement": "additional lung CRs based on NIH lung symptom score 1 to 0", "setting": "Example 2", "result": 3, "unit": "subjects"},
      {"measurement": "best ORR in subjects refractory to their last lines of therapy", "setting": "Example 2", "result": 75, "unit": "%"},
      {"measurement": "initiation of a new systemic cGVHD therapy (failure event)", "setting": "Example 2", "result": 38, "unit": "%"},
      {"measurement": "lung CR based on normalization of FEV1", "setting": "Example 2", "result": 3, "unit": "subjects"},
      {"measurement": "median FEV1 increase for all subjects achieving lung PR", "setting": "Example 2", "result": 10, "unit": "%"},
      {"measurement": "median FEV1 increase in lung CR subjects", "setting": "Example 2", "result": 23, "unit": "%"},
      {"measurement": "nonrelapse mortality (NRM)", "setting": "Example 2", "result": 7, "unit": "%"},
      {"measurement": "overall median time to response", "setting": "Example 2", "result": 5, "unit": "weeks"},
      {"measurement": "relapse", "setting": "Example 2", "result": 3, "unit": "%"},
      {"measurement": "responses seen after 6 to 12 months of treatment", "setting": "Example 2", "result": 9, "unit": "%"},
      {"measurement": "skin responders with decrease in body surface area involvement", "setting": "Example 2", "result": 15, "unit": "subjects"},
      {"measurement": "skin responders with decrease in sclerotic features", "setting": "Example 2", "result": 11, "unit": "subjects"},
      {"measurement": "skin responders with improvement in both body surface area and sclerotic features", "setting": "Example 2", "result": 13, "unit": "subjects"},
      {"measurement": "subjects with lung responses", "setting": "Example 2", "result": 12, "unit": "subjects"},
      {"measurement": "subjects with skin responses", "setting": "Example 2", "result": 41, "unit": "subjects"},
      {"measurement": "best ORR", "setting": "Example 2, 200 mg daily", "result": 74, "unit": "%"},
      {"measurement": "best ORR", "setting": "Example 2, 200 mg twice daily", "result": 77, "unit": "%"},
      {"measurement": "overall FFS rate", "setting": "Example 2, at 6 months", "result": 75, "unit": "%"},
      {"measurement": "overall FFS rate", "setting": "Example 2, at 12 months", "result": 56, "unit": "%"},
      {"measurement": "ORRs in all subgroups", "setting": "Example 2, mITT", "result": "61-85%"},
      {"measurement": "best ORR in the esophagus", "setting": "Example 2, mITT", "result": 45, "unit": "%"},
      {"measurement": "best ORR in the eyes", "setting": "Example 2, mITT", "result": 42, "unit": "%"},
      {"measurement": "best ORR in the joints/fascia", "setting": "Example 2, mITT", "result": 71, "unit": "%"},
      {"measurement": "best ORR in the liver", "setting": "Example 2, mITT", "result": 39, "unit": "%"},
      {"measurement": "best ORR in the lower GI tract", "setting": "Example 2, mITT", "result": 69, "unit": "%"},
      {"measurement": "best ORR in the lungs", "setting": "Example 2, mITT", "result": 26, "unit": "%"},
      {"measurement": "best ORR in the mouth", "setting": "Example 2, mITT", "result": 55, "unit": "%"},
      {"measurement": "best ORR in the skin", "setting": "Example 2, mITT", "result": 37, "unit": "%"},
      {"measurement": "best ORR in the upper GI tract", "setting": "Example 2, mITT", "result": 52, "unit": "%"},
      {"measurement": "ORR, subgroup with prior ibrutinib therapy", "setting": "Example 2, pooled arms", "result": 74, "unit": "%"},
      {"measurement": "ORR, subgroup with prior ruxolitinib therapy", "setting": "Example 2, pooled arms", "result": 68, "unit": "%"},
      {"measurement": "median DOR", "setting": "Example 2, responder population", "result": 54, "unit": "weeks"},
      {"measurement": "CR, Esophagus", "setting": "Total", "result": "14 (45) n (%)"},
      {"measurement": "CR, Eyes", "setting": "Total", "result": "14 (14) n (%)"},
      {"measurement": "CR, Joints and fascia", "setting": "Total", "result": "20 (20) n (%)"},
      {"measurement": "CR, Liver", "setting": "Total", "result": "4 (31) n (%)"},
      {"measurement": "CR, Lower GI", "setting": "Total", "result": "8 (62) n (%)"},
      {"measurement": "CR, Lungs", "setting": "Total", "result": "6 (13) n (%)"},
      {"measurement": "CR, Mouth", "setting": "Total", "result": "32 (44) n (%)"},
      {"measurement": "CR, Skin", "setting": "Total", "result": "18 (16) n (%)"},
      {"measurement": "CR, Upper GI", "setting": "Total", "result": "11 (48) n (%)"},
      {"measurement": "ORR, Esophagus", "setting": "Total", "result": "14 (45) n (%)"},
      {"measurement": "ORR, Eyes", "setting": "Total", "result": "41 (42) n (%)"},
      {"measurement": "ORR, Joints and fascia", "setting": "Total", "result": "71 (71) n (%)"},
      {"measurement": "ORR, Liver", "setting": "Total", "result": "5 (39) n (%)"},
      {"measurement": "ORR, Lower GI", "setting": "Total", "result": "9 (69) n (%)"},
      {"measurement": "ORR, Lungs", "setting": "Total", "result": "12 (26) n (%)"},
      {"measurement": "ORR, Mouth", "setting": "Total", "result": "40 (56) n (%)"},
      {"measurement": "ORR, Skin", "setting": "Total", "result": "41 (37) n (%)"},
      {"measurement": "ORR, Upper GI", "setting": "Total", "result": "12 (52) n (%)"},
      {"measurement": "PR, Esophagus", "setting": "Total", "result": "0 n (%)"},
      {"measurement": "PR, Eyes", "setting": "Total", "result": "27 (28) n (%)"},
      {"measurement": "PR, Joints and fascia", "setting": "Total", "result": "51 (51) n (%)"},
      {"measurement": "PR, Liver", "setting": "Total", "result": "1 (8) n (%)"},
      {"measurement": "PR, Lower GI", "setting": "Total", "result": "1 (8) n (%)"},
      {"measurement": "PR, Lungs", "setting": "Total", "result": "6 (13) n (%)"},
      {"measurement": "PR, Mouth", "setting": "Total", "result": "8 (11) n (%)"},
      {"measurement": "PR, Skin", "setting": "Total", "result": "23 (21) n (%)"},
      {"measurement": "PR, Upper GI", "setting": "Total", "result": "1 (4) n (%)"},
      {"measurement": "FFS at 6 mo (95% CI)", "setting": "Total (N = 132)", "result": "75 (66-81) %"},
      {"measurement": "FFS at 12 mo (95% CI)", "setting": "Total (N = 132)", "result": "56 (47-64) %"},
      {"measurement": "ORR", "setting": "200 mg daily (n = 66)", "result": "49 (74) n (%)"},
      {"measurement": "ORR for responses occurring within 6 mo of treatment", "setting": "200 mg daily (n = 66)", "result": "47 (71) n (%)"},
      {"measurement": "ORR for responses occurring within 12 mo of treatment", "setting": "200 mg daily (n = 66)", "result": "49 (74) n (%)"},
      {"measurement": "ORR", "setting": "200 mg twice daily (n = 66)", "result": "51 (77) n (%)"},
      {"measurement": "ORR for responses occurring within 6 mo of treatment", "setting": "200 mg twice daily (n = 66)", "result": "48 (73) n (%)"},
      {"measurement": "ORR for responses occurring within 12 mo of treatment", "setting": "200 mg twice daily (n = 66)", "result": "50 (76) n (%)"},
      {"measurement": "ORR", "setting": "Total (N = 132)", "result": "100 (76) n (%)"},
      {"measurement": "ORR for responses occurring within 6 mo of treatment", "setting": "Total (N = 132)", "result": "95 (72) n (%)"},
      {"measurement": "ORR for responses occurring within 12 mo of treatment", "setting": "Total (N = 132)", "result": "99 (75) n (%)"},
      {"measurement": "CR", "setting": "[1]", "result": "2 (3) n (%)"},
      {"measurement": "PR", "setting": "[1]", "result": "45 (68) n (%)"},
      {"measurement": "CR", "setting": "[2]", "result": "1 (2) n (%)"},
      {"measurement": "PR", "setting": "[2]", "result": "47 (71) n (%)"},
      {"measurement": "CR", "setting": "[3]", "result": "3 (2) n (%)"},
      {"measurement": "PR", "setting": "[3]", "result": "92 (70) n (%)"},
      {"measurement": "CR", "setting": "[4]", "result": "4 (6) n (%)"},
      {"measurement": "PR", "setting": "[4]", "result": "45 (68) n (%)"},
      {"measurement": "CR", "setting": "[5]", "result": "2 (3) n (%)"},
      {"measurement": "PR", "setting": "[5]", "result": "48 (73) n (%)"},
      {"measurement": "CR", "setting": "[6]", "result": "6 (5) n (%)"},
      {"measurement": "PR", "setting": "[6]", "result": "93 (71) n (%)"}
    ]}
  ]
}
